# Laboratory results published in US10426775B2, “Methods for treating Friedreich's ataxia with etravirine” (Fratagene Therapeutics srl, priority 2017, dated 2019).
# Tests used:
# Assay type in all cases: cell-based, human
# frataxin-deficient cells = test: Toxic effect and cell viability of etravirine-treated frataxin-deficient cells; conditions: any of the tested doses
# [1] = tested on: newly synthesized frataxin mRNA; test: Nascent frataxin transcripts (EU metabolic labeling, Click-iT capture, real-time PCR) in HEK293-fxn; conditions: 10 μM, 4 or 8 hours
# Source text: We then investigated whether the observed increase in frataxin protein levels is due to an upregulation of the frataxin mRNA, either promoted by an increase in the […] rate of frataxin mRNA or by its stabilization. To understand whether etravirine promotes de novo synthesis of frataxin mRNA, we metabolically labeled nascent transcripts through the incorporation of 5-ethynyl uridine (EU). Through a click chemistry-based reaction, biotin was then conjugated to EU-labelled transcripts, thus allowing selective isolation and analysis of newly synthesized mRNA. We therefore quantitatively analyzed the relative amount of newly synthesized frataxin mRNA in etravirine-treated HEK293-fxn cells, compared to untreated control cells. […] We then analyzed the effect of etravirine on the decay of frataxin transcript observed upon treatment with actinomycin. HEK293-fxn cells were treated with actinomycin for 4, 8 or 12 hours in the presence or absence of etravirine and frataxin mRNA was quantitated by RT-PCR.
# (§1) HEK 293-fxn stably expressing frataxin (A), HEK 293 (B), or FRDA lymphoblast cell line GM16203 (C) were treated with 10 μM etravirine for the indicated time points. Protein extracts were resolved on SDS-PAGE and analyzed by western blot with anti-frataxin antibody and anti-tubulin as a loading control. Etr: etravirine; tub: tubulin; fxn pre: frataxin precursor. […]
# frataxin precursor = test: Western blot of frataxin in HEK293 cells expressing only endogenous frataxin; conditions: 10 μM etravirine
# Protocol: Total cell extracts were prepared in lysis buffer (50 mM Tris-HCl, pH 7.5, 150 mM NaCl, 1% Igepal CA-630, 5 mM EDTA, 5 mM EGTA) supplemented with complete protease inhibitor cocktail (Roche Diagnostics, Indianapolis, Ind., USA). Lysates were clarified by centrifugation and supernatants were mixed with 4× Laemmli sample buffer (50 mM Tris pH 6.8, 2% SDS, 10% gliycerol, 0.0025% bromophenol blue, 5% beta-mercaptoethanol), boiled for 5 min, resolved by precast 12% SDS-PAGE gels (Bio-Rad Laboratories, Hercules, Calif., USA) and transferred to […] nitrocellulose membrane (TRANS-BLOT® TURBO™ Transfer pack, Bio-Rad). […] The immunoreactive bands were detected by ECL (GE Healthcare, Chalfont St. Giles, UK) and imaged with a ChemiDoc XRS system (Bio-Rad). […] All values are expressed as means±1 S.E.M.
# The identified candidate drugs were individually validated for their ability to promote frataxin accumulation in different cell types. […] Protein extracts from the cell lines were resolved on SDS-PAGE and analyzed by western blot with anti-frataxin antibody and anti-tubulin as a loading control. […]
# as §1, with “control.” for “control. Etr: etravirine; tub: tubulin; fxn pre: frataxin precursor.”
# [2] = tested on: GM16214 and GM16215 lymphoblasts; test: Cell viability (XTT) after H2O2 treatment of lymphoblasts; conditions: 500 nM etravirine 24 h
# Protocol: Cells were treated with etravirine 500 nM for 24 h, then transferred (40000 cells/100 ul/well) into 96-well tissue culture plates. Cultures were supplemented for 16 h with 12.5 μM, 25 μM and 50 μM H2O2 (Sigma-Aldrich). After H2O2 treatment, 1 mg/ml XTT (2,3-Bis-(2-Methoxy-4-Nitro-5-Sulfophenyl)-2H-Tetrazolium-5-Carboxanilide) (INVITROGEN™, Thermo Fisher Scientific, Waltham, Mass. USA) and 0.25% Phenazine methosulfate (PMS, Fisher Scientific, Thermo Fisher Scientific, Waltham, Mass. USA) were added (25 μL/well) and cells were incubated for additional 2 h. Results were expressed as the percentage of reduction of absorbance at 450 nm by calibration with the absorbance of the control (untreated) cells. […]
# FIGS. 6A to 6E show how etravirine functionally can rescue frataxin deficiency in FRDA patient cells. […] Cell extracts were resolved on SDS-PAGE and analysed by western blot with anti-frataxin antibody and anti-tubulin as a loading control. […] Aconitase activity was measured spectrophotometrically at 340 nm as described in the Methods section. Data represent the average of three (C) or five (D) independent experiments±S.E.M. p-values were calculated with Student's t-test (*p<0.05) E): Lymphoblasts derived from FRDA patient (GM16214) or from the unaffected carrier parent (GM16215), were either treated with 500 nM etravirine for 24 hrs or with vehicle only. […]
smiles,measurement,setting,value
Cc1cc(C#N)cc(C)c1Oc1nc(Nc2ccc(C#N)cc2)nc(N)c1Br [etravirine],toxic effect on frataxin-deficient cells,frataxin-deficient cells,does not show any toxic effect
same,cell viability,frataxin-deficient cells; frataxin-deficient cells,does not affect cell viability
same,relative amount of newly synthesized frataxin mRNA vs untreated control cells,[1],did not observe any difference
same,frataxin precursor accumulation,frataxin precursor,can also be detected
same,protection from H2O2-induced cell death,"[2]; GM16214 patient lymphoblasts, then 12.5, 25, 50 μM H2O2 for 16 h",significantly protects
same,cell viability after H2O2 in healthy control cells upon etravirine treatment,"[2]; GM16215 lymphoblasts, then H2O2 for 16 h",no further improvement
